Read-outs that look alike come from different tables or passages of the source.
Assays:
[1] = system: M. abscessus ATCC 19977; conditions: positive control, earlier report; cited from earlier work
[2] = system: M. abscessus strain M422; test: Single-concentration assay with and without clarithromycin (hit validation); type: cell-based, Mycobacterium abscessus
Experimental: (§1) For checkerboard synergy assay, 3 M. abscessus strains were used: M. abscessus ATCC 19977, M. abscessus strains M422 and M110, while bactericidal activity determination and the zebrafish study were performed with M. abscessus ATCC 19977. All three strains of M. abscessus harbor the inducible clarithromycin resistance-conferring erm(41) T28 sequevar. M. abscessus strain M422 and M110 were provided by Dr. Jeanette Teo, National University Hospital, Singapore (Chew K L, et al., 2017. J Med Microbiol 66: 1443-1447). M. abscessus ATCC 19977 and M. avium ATCC 700898 were acquired from American Type Culture Collection (ATCC).
(§2) Primary screening was carried out in 96-well flat-bottom Corning Costar cell culture plates at 50 μM compound along with 4 μg/ml of Clr in a starting inoculum of pre-induced M. abscessus cells at OD600 of 0.005 in a final volume of 100 μl. The plates were put in an airtight container with moist paper towels and incubated for 4 d at 30° C. The cultures in the wells were resuspended before OD600 was read in a BioTek Synergy 4 plate reader.
To start the validation process, the top 10 compounds with >90% growth inhibition were chose to perform a single-concentration assay, with and without clarithromycin. Finally, the inventors obtained 7 compounds that potentiated Clr efficacy.

[3] = system: M. abscessus ATCC 19977 (pre-induced); test: microbe, parasite or virus in culture; type: cell-based, Mycobacterium abscessus; conditions: for Percentage of bacterial growth: clarithromycin 0 μg/ml
Experimental: (§3) The FICI was calculated by summing the FIC of Rfx and the FIC of Clr. FIC of Clr is the MIC of Clr in the presence of Rfx divided by MIC of Clr alone. FIC of Rfx was similarly calculated.
(§4) To characterize the interaction between Clr and Rfx, checkerboard synergy assays were performed on pre-induced Clr-resistant M. abscessus. The fractional inhibitory concentration index (FICI) obtained from the checkerboard assay defines whether the interaction between the two compounds is either synergistic (FICI≤0.5), additive (0.5<FICI≤1.0), indifferent (1.0<FICI≤4.0), or antagonistic (FICI >4.0) (Noel D J, Keevil C W, Wilks S A. 2021. MBio 12).

[4] = system: M. abscessus strain M110 (pre-induced); test: microbe, parasite or virus in culture; type: cell-based, Mycobacterium abscessus
Experimental: as §3, §4

[5] = system: M. abscessus strain M422 (pre-induced); test: microbe, parasite or virus in culture; type: cell-based, Mycobacterium abscessus
Experimental: as §3, §4

[6] = system: M. avium ATCC 700898 (uninduced); test: Checkerboard synergy assay; type: cell-based, Mycobacterium avium; conditions: for MIC90: Mycobacterium avium, ATCC700898
Experimental: (§5) With Rfx identified as the best potentiator of Clr activity, the interaction between Rfx and Clr was investigated by a checkerboard synergy approach using a broth microdilution method performed in 96-well plates. To provide a classification of the combined antibiotics based on the fractional inhibitory concentration index (FICI), this assay applied the combination of Clr and Rfx in concentrations of 0-64 μg/ml by 2-fold serial dilutions along the abscissa and ordinate, respectively. The FICI was calculated by summing the FIC of Rfx and the FIC of Clr. FIC of Clr is the MIC of Clr in the presence of Rfx divided by MIC of Clr alone. FIC of Rfx was similarly calculated.
As both M. abscessus and M. avium are the main organism groups causing pulmonary NTM (Lim A Y H, et al., 2018. BMC Pulm Med 18 (1):85; Tan Y, et al., 2018. BMC Pulm Med 18 (1): 168), the inventors tested the combination of Clr and Rfx against M. avium in the checkerboard assay as well. With a FICI of 0.563, the interaction between Clr and Rfx was additive in M. avium.

[7] = system: M. abscessus ATCC 19977, M. abscessus strains M422 and M110; test: Checkerboard synergy assay, statements on all 3 M. abscessus strains; type: cell-based, Mycobacterium abscessus
Experimental: as §1, §5, §4

[8] = system: M. abscessus ATCC 19977; test: Zebrafish embryo infection model; type: in vivo, zebrafish (Denio rerio); conditions: 19.6 μg/ml Rfx alone, immersion for 4 days
Text: To visualize the bacterial infection in the zebrafish (Denio rerio), a fluorescent strain of M. abscessus ATCC 19977 containing pJKD2893:mScarlet was generated. The pJKD2893 plasmid backbone was a kind gift from Professor Timothy Stinear. The gene expressing the fluorescent protein mScarlet was amplified from μMRE135-mScarlet (Addgene #118489, Mitja Remus-Emsermann lab). The amplification product was annealed by Gibson cloning with the pJKD2893 backbone amplified from a sample of pJKD2893. The resulting plasmid, termed pJKD2893:mScarlet, was electroporated into M. abscessus ATCC 19977 at a culture density equivalent to OD600˜20 using a BioRad GenePulser Xcell set at 2.5 kV, 25 uF, and 1,000Ω. […] Colonies carrying the plasmid were identified by their fluorescence. […]
Preparation of M. abscessus Inoculum and Zebrafish Infections Cultures of M. abscessus-pJKD2893:mScarlet in 7H9 media supplemented with 50 μg/ml kanamycin were grown to OD600 of 0.2-0.3 and concentrated to OD600 of 1 in 0.1% PBS-Tween-20. […] The actual CFU in the inoculum was determined a posteriori by injecting into 50 μl 0.1% PBS-Tween-20 and streaking on a plate. […]
Larvae were harvested to assess the bacterial load at 5 d post-infection using a slightly modified version of the Kremer lab method (Bernut et al., Antimicrob Agents Chemother 58: 4054-4063). […] Fluorescent colonies were counted after 5-6 days. […]

[9] = system: M. abscessus strain M422; test: Primary compound screening against pre-induced bacterial cells; type: cell-based, Mycobacterium abscessus; conditions: 50 μM compound with 4 μg/ml Clr
Experimental: A total of 2,252 drugs/compounds comprising 1,576 FDA-approved drugs and 676 clinical compounds were purchased from MedChemExpress. The compounds were dissolved in dimethyl sulfoxide (DMSO) to a stock concentration of 10 mM. The Clr resistance in M. abscessus was induced for 3 days under 0.5 μg/ml of Clr before being subjected to compound screening.
as §2
A compound library consisting of 2,252 FDA-approved and clinical-stage drugs was screened against M. abscessus clinical strain M422. Bacteria were exposed to a sub-inhibitory concentration of Clr (0.5 μg/ml) for 3 days to induce Clr resistance. The test drugs were screened at 50 μM in the presence of 4 μg/ml of Clr to maintain the Clr-resistance phenotype.

[10] = Mycobacteroides abscessus, alone, read-out: MIC90 Rfx individually

COc1nc2ccc(Br)cc2cc1[C@@H](c1ccccc1)[C@@](O)(CCN(C)C)c1cccc2ccccc12 [Bedaquiline]
efficacy against M. abscessus in zebrafish embryos [1]: demonstrated efficacy

CO[C@H]1/C=C/O[C@@]2(C)Oc3c(C)c(O)c4c(O)c(c5c(nc6cc(C)ccn65)c4c3C2=O)NC(=O)/C(C)=C\C=C\[C@H](C)[C@H](O)[C@@H](C)[C@@H](O)[C@@H](C)[C@H](OC(C)=O)[C@@H]1C [Rifaximin, rifaximin]
% inhibition with 0.5 μg/ml Clr ([2]; compound combined with clarithromycin): 100%
% inhibition with compound alone ([2]; without clarithromycin): 85.6%
MIC90 ([3]; Mycobacteroides abscessus, ATCC19977, read-out: MIC90 Rfx individually): 128 µg/mL
MIC90 Rfx in combination ([3]; in combination with Clr): 4 µg/mL
MIC90 Rfx in combination [4]: 4 µg/mL
MIC90 [4, 10]: 128 µg/mL
MIC90 Rfx in combination [5]: 1 µg/mL
MIC90 [5, 10]: 16 µg/mL
MIC90 ([6]; alone, read-out: MIC90 Rfx individually): 0.03 µg/mL
MIC90 ([6]; read-out: MIC90): < 0.1 µg/mL
MIC90 Rfx in combination ([6]; in combination with Clr): 0.015 µg/mL
concentration at which significant synergistic effects with clarithromycin are shown ([7]; Table 2): ≥ 1 µg/mL
MIC of Rfx ([7]; tested alone): extremely high
CFU reduction [8]: did not show any CFU reduction

CO[C@H]1/C=C/O[C@@]2(C)Oc3c(C)c(O)c4c(c3C2=O)C2=NC3(CCN(CC(C)C)CC3)NC2=C(NC(=O)/C(C)=C\C=C\[C@H](C)[C@H](O)[C@@H](C)[C@@H](O)[C@@H](C)[C@H](OC(C)=O)[C@@H]1C)C4=O [rifabutin]
hit status in primary screening [9]: one of the top hits
Percentage of bacterial growth ([3]; partner antibiotic 1 μg/ml): 105.5%
Percentage of bacterial growth ([3]; partner antibiotic 2 μg/ml): 101.8%
Percentage of bacterial growth ([3]; partner antibiotic 4 μg/ml): 99.4%
Percentage of bacterial growth ([3]; partner antibiotic 8 μg/ml): 100.2%
Percentage of bacterial growth ([3]; partner antibiotic 16 μg/ml): 79.1%
Percentage of bacterial growth ([3]; partner antibiotic 32 μg/ml): 9.2%
Percentage of bacterial growth ([3]; partner antibiotic 64 μg/ml): 1.2%

Reference: patent US20260130932A1, “NOVEL COMBINATION OF RIFAXIMIN AND CLARITHROMYCIN FOR TREATING MULTIDRUG-RESISTANT MYCOBACTERIUM ABSCESSUS” (priority 2022, published 2026)
